Values quoted from earlier work as cited in paper PMC5748270 (Organic & biomolecular chemistry, 2017).

Tests used:
[1] = tested on: B16 melanoma; settings: comparably to mitomycin C
[2] = tested on: B16 melanoma cells
[3] = tested on: HIV
[4] = tested on: HSV-2
[5] = tested on: Plasmodium falciparum K1; settings: selectivity on par with artesunate
[6] = tested on: HSV-1; settings: read-out: HSV-1 antiviral EC50

## O=c1c(O)cccc(O)c1O [3,7-dHT, 3,7-Dihydroxytropolones]
[1]
  Lifespan of mice bearing B16 melanoma: increases the lifespan
[2]
  Activity against B16 melanoma cells relative to αHTs: an order of magnitude greater than αHTs
[3]
  cell-based HIV antiviral activity: promising cell-based HIV antiviral activity

## Nc1nc2c(ncn2COCCO)c(=O)[nH]1 [ACV, acyclovir]
[4]; obtained previously under identical conditions
  Potency against HSV-2 relative to HSV-1: nearly an order of magnitude less potent

## O=C(O)c1cc(O)c(O)c(=O)c(O)c1 [puberulic acid]
[5]
  Antimalarial activity: potent antimalarial activity

## manicol
[4]; read-out: HSV-2 antiviral EC50
  EC50: 580 nM
[6]
  EC50: 350 nM
